Measurements: patent US9718854B2, “Selective glycosidase inhibitors and uses thereof” (priority 2011, dated 2017)
Like-named read-outs stand apart in the source and are kept apart here. Values belong to the compound of their own block, whether it stands above or below them.

Assays:
human O-GlcNAcase = human O-GlcNAcase (Homo sapiens (Human), UniProt O60502); assay: biochemical; settings: purified human O-GlcNAcase, 4-methylumbelliferyl N-acetyl-β-D-glucosaminide substrate, pH 7.0, Cheng-Prusoff; read-out: Fluorescence-based hOGA Ki
Experimental: Assay for Determination of KI Values for Inhibition of O-GlcNAcase Activity
Experimental Procedure for Kinetic Analyses:
Enzymatic reactions were carried out in a reaction containing 50 mM NaH2PO4, 100 mM NaCl and 0.1% BSA (pH 7.0) using 2 mM 4-Methylumbelliferyl N-acetyl-β-D-glucosaminide dihydrate (Sigma M2133) dissolved in ddH2O, as a substrate. The amount of purified human O-GlcNAcase enzyme used in the reaction was 0.7 nM. Test compound of varying concentrations was added to the enzyme prior to initiation of the reaction. The reaction was performed at room temperature in a 96-well plate and was initiated with the addition of substrate. […] The slope of product production was determined for each concentration of compound tested and plotted, using standard curve fitting algorithms for sigmoidal dose response curves. The values for a four parameter logistic curve fit of the data were determined.

O-GlcNAcase = O-GlcNAcase (Rattus norvegicus (Rat), UniProt Q8VIJ5); assay: Cell-based ELISA of O-GlcNAcylated protein (RL-2 antibody) for cellular O-GlcNAcase inhibition
Excerpt: Assay for Determination of Cellular Activity for Compounds that Inhibit O-GlcNAcase Activity
Inhibition of O-GlcNAcase, which removes O-GlcNAc from cellular proteins, results in an increase in the level of O-GlcNAcylated protein in cells. An increase in O-GlcNAcylated protein can be measured by an antibody, such as RL-2, that binds to O-GlcNAcylated protein. The amount of O-GlcNAcylated protein:RL2 antibody interaction can be measured by enzyme linked immunosorbant assay (ELISA) procedures.
Compounds to be tested were dissolved in DMSO, either 2 or 10 mM stock solution, and then diluted with DMSO and water in a two-step process using a Tecan workstation. […] If desired, the total protein concentration of samples was determined using 20 μL of the sample using the BCA method. […]
The amount of O-GlcNAcylated protein, as detected by the ELISA assay, was plotted for each concentration of test compound using standard curve fitting algorithms for sigmoidal dose response curves. The values for a four parameter logistic curve fit of the data were determined, with the inflection point of the curve being the potency value for the test compound.

Sequence of O-GlcNAcase (Q8VIJ5 whole entry): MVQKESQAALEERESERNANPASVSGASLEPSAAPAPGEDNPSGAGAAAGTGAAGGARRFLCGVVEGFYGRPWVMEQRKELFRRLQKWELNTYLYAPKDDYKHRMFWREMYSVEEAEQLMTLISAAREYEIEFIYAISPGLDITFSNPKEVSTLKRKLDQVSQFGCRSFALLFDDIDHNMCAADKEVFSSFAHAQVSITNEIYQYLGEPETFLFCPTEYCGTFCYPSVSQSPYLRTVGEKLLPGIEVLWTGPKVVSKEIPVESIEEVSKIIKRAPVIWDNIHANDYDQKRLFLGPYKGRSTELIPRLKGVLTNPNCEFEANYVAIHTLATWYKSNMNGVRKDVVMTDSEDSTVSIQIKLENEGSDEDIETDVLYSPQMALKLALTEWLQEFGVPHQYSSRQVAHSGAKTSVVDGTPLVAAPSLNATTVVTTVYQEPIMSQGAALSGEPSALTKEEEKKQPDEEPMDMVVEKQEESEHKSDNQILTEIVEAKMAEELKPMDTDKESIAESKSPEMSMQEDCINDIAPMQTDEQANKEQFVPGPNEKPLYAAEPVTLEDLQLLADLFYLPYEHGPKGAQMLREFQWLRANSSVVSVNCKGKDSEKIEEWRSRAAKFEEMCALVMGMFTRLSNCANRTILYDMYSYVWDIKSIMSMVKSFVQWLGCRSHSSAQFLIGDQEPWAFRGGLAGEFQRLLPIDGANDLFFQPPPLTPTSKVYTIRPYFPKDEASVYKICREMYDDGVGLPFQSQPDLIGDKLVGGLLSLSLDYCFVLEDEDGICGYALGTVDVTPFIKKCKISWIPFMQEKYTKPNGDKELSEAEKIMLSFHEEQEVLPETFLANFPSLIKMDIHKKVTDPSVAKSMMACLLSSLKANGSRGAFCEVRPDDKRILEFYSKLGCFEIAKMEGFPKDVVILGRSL
Sequence of human O-GlcNAcase (O60502 whole entry): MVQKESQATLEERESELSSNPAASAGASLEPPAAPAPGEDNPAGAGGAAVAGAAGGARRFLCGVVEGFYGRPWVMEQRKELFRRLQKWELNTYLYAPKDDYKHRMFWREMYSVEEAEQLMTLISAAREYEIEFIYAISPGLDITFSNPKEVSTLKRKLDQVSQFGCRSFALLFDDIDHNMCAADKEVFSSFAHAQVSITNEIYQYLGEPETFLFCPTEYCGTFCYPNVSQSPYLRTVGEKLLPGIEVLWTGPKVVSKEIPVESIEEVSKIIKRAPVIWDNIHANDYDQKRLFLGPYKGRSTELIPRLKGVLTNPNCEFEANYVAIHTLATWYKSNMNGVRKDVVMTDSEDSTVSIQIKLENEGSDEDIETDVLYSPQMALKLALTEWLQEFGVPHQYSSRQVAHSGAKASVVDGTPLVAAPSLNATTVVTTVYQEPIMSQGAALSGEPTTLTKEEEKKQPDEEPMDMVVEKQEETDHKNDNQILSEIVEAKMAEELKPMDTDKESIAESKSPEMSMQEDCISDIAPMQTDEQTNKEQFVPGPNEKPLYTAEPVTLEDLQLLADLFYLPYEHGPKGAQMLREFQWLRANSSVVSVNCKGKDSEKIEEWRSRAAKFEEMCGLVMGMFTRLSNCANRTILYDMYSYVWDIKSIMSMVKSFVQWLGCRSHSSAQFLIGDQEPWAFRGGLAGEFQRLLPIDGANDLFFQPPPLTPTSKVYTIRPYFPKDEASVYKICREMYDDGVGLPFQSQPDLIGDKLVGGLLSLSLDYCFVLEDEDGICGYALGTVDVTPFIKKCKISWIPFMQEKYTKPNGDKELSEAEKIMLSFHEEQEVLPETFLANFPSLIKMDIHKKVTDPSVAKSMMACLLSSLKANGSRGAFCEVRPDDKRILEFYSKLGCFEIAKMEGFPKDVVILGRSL

- Ki (human O-GlcNAcase): 5.4 nM
SMILES: CNC1=N[C@@H]2[C@@H](O)[C@H](O)[C@@H](CNCC#N)O[C@@H]2S1 [Example 53, 2-((((3aR,5R,6S,7R,7aR)-6,7-dihydroxy-2-(methylamino)-5,6,7,7a-tetrahydro-3aH-pyrano[3,2-d]thiazol-5-yl)methyl)amino)acetonitrile]

SMILES: CNC1=N[C@@H]2[C@@H](O)[C@H](O)[C@@H](COC(=O)N(C)C)O[C@@H]2S1 [Example 9, ((3aR,5R,6S,7R,7aR)-6,7-dihydroxy-2-(methylamino)-5,6,7,7a-tetrahydro-3aH-pyrano[3,2-d]thiazol-5-yl)methyl dimethylcarbamate]
- EC50 (O-GlcNAcase; rat PC-12 cells, 24 h treatment, O-GlcNAcylated protein detected with RL-2 antibody, read-out: Cell-based ELISA EC50): 212 nM

SMILES: CNC1=N[C@@H]2[C@@H](O)[C@H](O)[C@@H](CNC3CCCC3)O[C@@H]2S1 [Example 37, (3aR,5R,6S,7R,7aR)-5-((cyclopentylamino)methyl)-2-(methylamino)-5,6,7,7a-tetrahydro-3aH-pyrano[3,2-d]thiazole-6,7-diol]
- EC50 (O-GlcNAcase): 3.7 nM
